Structures can show the parent of a compound that is named as a salt.

Sequence of Glycogen synthase kinase-3 beta (P49841 whole entry): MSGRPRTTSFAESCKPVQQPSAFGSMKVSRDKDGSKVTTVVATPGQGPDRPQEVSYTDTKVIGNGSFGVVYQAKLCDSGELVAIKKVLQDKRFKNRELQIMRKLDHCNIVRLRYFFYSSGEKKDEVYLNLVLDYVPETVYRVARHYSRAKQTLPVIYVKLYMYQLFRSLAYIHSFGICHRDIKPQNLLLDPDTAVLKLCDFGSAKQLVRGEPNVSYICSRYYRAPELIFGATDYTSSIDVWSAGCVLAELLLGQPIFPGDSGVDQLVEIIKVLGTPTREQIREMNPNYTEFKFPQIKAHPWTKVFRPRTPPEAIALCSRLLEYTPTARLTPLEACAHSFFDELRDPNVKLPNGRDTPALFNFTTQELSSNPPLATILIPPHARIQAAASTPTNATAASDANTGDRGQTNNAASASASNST

This test has as its target Glycogen synthase kinase-3 beta (Homo sapiens, UniProt P49841). Description: GSK3beta kinase inhibitor potency, dose response, biochemical, luminescence, cell-free homogeneous, retest (AID 434954).
The term EC50 denotes the concentration needed to bring the measured effect to its halfway point. Consider `CCOC(=O)c1ccc(NC(=O)CN(C)S(=O)(=O)c2ccc(Br)s2)cc1` [ethyl 4-[2-[(5-bromanylthiophen-2-yl)sulfonyl-methyl-amino]ethanoylamino]benzoate], for which the EC50 is over 300 µM.

On to `Nc1nc(Nc2ccccc2)nc(NCc2ccccc2)c1[N+](=O)[O-]`, for which the half-maximal effective concentration (EC50) stood at 13.3 µM. The figure for `CC(C)(C)C(=O)COC(=O)c1ccc(O)cc1` is over 300 µM; for `c1csc(CN=Nc2ncnc3nc[nH]c23)c1` [MLS000419130] it is 19.7 µM. The figure for `CCN1CCc2c(sc(NC(=O)Cc3ccccc3)c2C(N)=O)C1` [6-ethyl-2-[(1-oxo-2-phenylethyl)amino]-5,7-dihydro-4H-thieno[2,3-c]pyridine-3-carboxamide;hydrochloride] is over 300 µM. The figure for `Cc1ccc2c(c1)COc1c3ccc(C(=O)O)cc3nn1-2` is 8.69 µM; for `COc1cc(/C=N/NC(=O)c2ccccc2F)ccc1Oc1ccc([N+](=O)[O-])cn1` [MLS000779573] it is over 300 µM.

With `Cc1cc(NC(=O)CSc2ccc3nnc(-c4ccc(F)cc4)n3n2)no1` [2-{[3-(4-fluorophenyl)[1,2,4]triazolo[4,3-b]pyridazin-6-yl]thio}-N-(5-methylisoxazol-3-yl)acetamide], the EC50 was over 300 µM.

`COCCn1c(SCC(=O)Nc2ncc(Cl)c(C)c2Cl)nc2ccccc21` [MLS000097567] had an EC50 of over 300 µM. In the case of `Nc1nonc1-n1nnc(C(=O)N/N=C/c2ccncc2)c1CN1CCCCC1` it was 0.181 µM; in that of `COc1ccc(C=C2SC(Nc3ccccc3)=NC2=O)cc1` [5-(4-Methoxy-benzylidene)-2-phenylimino-thiazolidin-4-one], over 300 µM. In the case of `COc1cccc(C(=O)Nc2nnc(C(C)C)s2)c1` [SMR000013475] it was over 300 µM; in that of `CCOC(=O)c1c(C)[nH]c(C)c1S(=O)(=O)N(C)CC(=O)Nc1cccc(F)c1` [ethyl 4-[[2-(3-fluoroanilino)-2-oxoethyl]-methylsulfamoyl]-2,5-dimethyl-1H-pyrrole-3-carboxylate], over 300 µM.

For the molecule `CCOC(=O)c1c(S(=O)(=O)NCC(=O)NCc2ccc(C)cc2)c(C)n(C)c1C` [ethyl 1,2,5-trimethyl-4-[[2-[(4-methylphenyl)methylamino]-2-oxoethyl]sulfamoyl]pyrrole-3-carboxylate], the EC50 was over 300 µM. In the case of `c1cncc(CNc2nc(-c3cccnc3)nc3ccccc23)c1` [2-pyridin-3-yl-N-(pyridin-3-ylmethyl)quinazolin-4-amine], the EC50 was over 300 µM.

As to `CN(C)c1ccc(/N=N/c2ccc(S(N)(=O)=O)cc2)cc1`, the EC50 is over 300 µM.

`Cc1nc2nc(=O)c3c(n2[nH]1)NC1=C(C(=O)CC(C)(C)C1)C3c1ccc(F)cc1` (stereo not drawn) [MLS000084336] showed an EC50 of over 300 µM. The molecule `CCOc1ccc(/C=C2\CCCc3c2nc2ccccc2c3C(=O)O)cc1OC` [SMR000688807] returned an EC50 of over 300 µM. In the case of `COc1ccccc1NC(=S)NC1CCCCCCCCCCC1` [SMR000460399] it was over 300 µM; in that of `Fc1ccc(CSc2ccc3nnc(-c4cccnc4)n3n2)cc1` [MLS000624295], over 300 µM. In the case of `COc1cc2c(cc1OC)C(C)N(C(=O)c1ccc(Br)o1)CC2` (stereo not drawn) [SMR000269781] it was over 300 µM. The figure for `O=C(Nc1ccnn1C1CCN(Cc2cccc(OCCO)c2)CC1)C1CCCC1` [N-[2-[1-[[3-(2-hydroxyethyloxy)phenyl]methyl]piperidin-4-yl]pyrazol-3-yl]cyclopentanecarboxamide] is over 300 µM; for `O=C(NCc1cccs1)c1cc(C2CC2)on1` [SMR000127641] it is over 300 µM; for `COc1ccc(-c2nn(-c3ccccc3)cc2C=Nn2cnnc2)cc1OC` [SMR000066046] it is over 300 µM. In turn, `COc1ccc(/C=C2/Sc3ccc(C(=O)NCCN4CCCCCC4)cc3NC2=O)cc1` [(2E)-N-[2-(azepan-1-yl)ethyl]-2-[(4-methoxyphenyl)methylidene]-3-oxo-4H-1,4-benzothiazine-6-carboxamide] showed an EC50 of over 300 µM. The figure for `CCOC(=O)c1sc(=S)n(-c2ccccc2OC)c1N` is over 300 µM; for `CN(C)c1nc(-c2cccnc2)nc(-c2ccccc2)c1C#N` [SMR000549421] it is over 300 µM; for `CCSc1ccc2nnc(-c3ccc(F)cc3)n2n1` [SMR000028943] it is 2.82 µM. `Cc1ccc(-c2nn(-c3ccccc3)cc2CO)cc1` came in with an EC50 of over 300 µM. As to `COC(=O)CCC(=O)Oc1ccc(OC(=O)CCC(=O)OC)cc1` [4-O-[4-(4-methoxy-4-oxobutanoyl)oxyphenyl] 1-O-methyl butanedioate], the EC50 was over 300 µM. The figure for `O=C(NCCCN1CCCCC1)c1ccc2c(c1)NC(=O)c1ccccc1S2` [6-oxidanylidene-N-(3-piperidin-1-ylpropyl)-5H-benzo[b][1,4]benzothiazepine-3-carboxamide] is over 300 µM; for `Nc1nc(NCc2ccccc2)nc(Nc2cccc(F)c2)c1[N+](=O)[O-]` [N-Benzyl-N'-(3-fluoro-phenyl)-5-nitro-pyrimidine-2,4,6-triamine] it is 108 µM; for `CC1(C)CC(=O)C=C(Nc2cccc(C(F)(F)F)c2)C1` [5,5-dimethyl-3-[[3-(trifluoromethyl)phenyl]amino]cyclohex-2-en-1-one] it is over 300 µM. In the case of `O=c1cc(-c2ccccc2Cl)oc2c([N+](=O)[O-])c(O)cc(O)c12` [MLS000518336] it was 2.58 µM. In the case of `Cc1ccc(Cc2cnc(NC(=O)C3CCCO3)s2)cc1` (stereo not drawn) [SMR000141246] it was 17.4 µM; in that of `COc1ccc(-c2nn(CCC#N)cc2CN=O)cc1OC` [3-[3-(3,4-dimethoxyphenyl)-4-(hydroxyiminomethyl)pyrazol-1-yl]propanenitrile], over 300 µM; in that of `Cn1c(=O)c2[nH]c(CCCC(=O)O)nc2n(Cc2ccccc2)c1=S` [4-(3-benzyl-1-methyl-6-oxo-2-sulfanylidene-7H-purin-8-yl)butanoic acid], 5.17 µM.

`Cc1nc(NCCCn2ccnc2)c2ccccc2n1` [N-(3-imidazol-1-ylpropyl)-2-methyl-quinazolin-4-amine;hydrochloride] registered a half-maximal effective concentration (EC50) of over 300 µM. In the case of `COc1ccc(-c2nn(-c3ccccc3)cc2CO)cc1OC` [MLS000110763] it was over 300 µM. In the case of `COc1cccc(C(N)=O)c1` it was over 300 µM. As to `O=C(O)c1cc(N=NCc2ccc(-c3ccc(F)cc3)o2)ccc1Cl` [2-chloranyl-5-[2-[[5-(4-fluorophenyl)furan-2-yl]methylidene]hydrazinyl]benzoic acid], the concentration for a half-maximal effect (EC50) was over 300 µM. In the case of `Cc1cc(C)c2nc(N(CCN(C)C)C(=O)c3ccc(S(=O)(=O)N(C)CC4CCCO4)cc3)sc2c1` (stereo not drawn) [MLS001239556] it was over 300 µM; in that of `COc1ccc(CCNC(=O)C(C(=O)c2ccccc2)n2cc(Cl)ccc2=O)cc1OC` (stereo not drawn) [2-(5-chloro-2-oxopyridin-1-yl)-N-[2-(3,4-dimethoxyphenyl)ethyl]-3-oxo-3-phenylpropanamide], over 300 µM; in that of `CC1(C)CC(=O)C2C(=NC3=C(C(=O)c4ccccc43)C2c2ccc(O)cc2)C1` (stereo not drawn) [10-(4-hydroxyphenyl)-7,7-dimethyl-5,6,8,10-tetrahydroindeno[1,2-b]quinoline-9,11-dione], over 300 µM. `O=C(O)c1ccccc1NCc1cccnc1` [SMR000473304] had a half-maximal effective concentration (EC50) of over 300 µM. In turn, `CCc1cccc(C)c1NC(=O)CSc1nnc(CCCOc2ccc(Cl)cc2Cl)n1C` [2-({5-[3-(2,4-dichlorophenoxy)propyl]-4-methyl-4H-1,2,4-triazol-3-yl}thio)-N-(2-ethyl-6-methylphenyl)acetamide] registered an EC50 of over 300 µM.

`CC(=O)N1CCc2c(sc(NC(=O)C3CCCCC3)c2C(N)=O)C1` [2-(cyclohexylcarbonylamino)-6-ethanoyl-5,7-dihydro-4H-thieno[2,3-c]pyridine-3-carboxamide] gave an EC50 of over 300 µM. In the case of `COc1cc(-c2n[nH]c3c2C(c2ccco2)C(C#N)C(=N)O3)cc(OC)c1OC` (stereo not drawn) [MLS000698887] it was 8.59 µM; in that of `Cc1nn(C)c(C)c1S(=O)(=O)N(CC(=O)Nc1nccs1)c1ccc(C(C)C)cc1` [MLS000118397], over 300 µM. The figure for `Cc1ccc(S(=O)(=O)NNC(=O)c2cccc(O)c2)cc1` [3-hydroxy-N'-(4-methylphenyl)sulfonylbenzohydrazide] is over 300 µM; for `CN1CCc2c(sc3c2c(=O)n(-c2ccccc2)c2nnc(SCc4ccccc4)n32)C1` [SMR000039895] it is over 300 µM. The figure for `Cc1cc2c(N3CCCCC3C)ncnc2s1` (stereo not drawn) [SMR000033135] is over 300 µM; for `COc1ccc(N2CCN(CC(O)COc3c(OC)cccc3OC)CC2)cc1` (stereo not drawn) [1-(2,6-dimethoxyphenoxy)-3-[4-(4-methoxyphenyl)piperazin-1-yl]propan-2-ol;hydrochloride] it is over 300 µM; for `COc1ccc2c(C)c(CC(=O)N3CCN(C(=O)C4COc5ccccc5O4)CC3)c(=O)oc2c1` (stereo not drawn) it is over 300 µM.

`C[C@H]1CCCC(=O)CCCC=Cc2cc(O)cc(O)c2C(=O)O1` [(11S)-11-methyl-15,17-bis(oxidanyl)-12-oxabicyclo[12.4.0]octadeca-1(18),2,14,16-tetraene-7,13-dione] had a half-maximal effective concentration (EC50) of 5.45 µM. This counts as single-digit micromolar. In the case of `O=C(Nc1cccnc1)c1sc(Nc2ccccc2)nc1-c1ccccc1` [SMR000261858] it was over 300 µM; in that of `CNc1nc(N)c([N+](=O)[O-])c(Nc2cccc(F)c2)n1` [SMR000436035], 12.4 µM; in that of `CCc1ccc(S(=O)(=O)Nc2ccc(O)c3c(=O)cc(-c4ccccc4Cl)oc23)cc1` [SMR000465243], over 300 µM. The figure for `CC(C)(C)c1csc(NC(=O)c2cccnc2)n1` [SMR000496644] is over 300 µM; for `O=NCc1ccc(N2CCCC2)c([N+](=O)[O-])c1` it is 5.66 µM.

Take `COc1ccc(Nc2nc(N)c([N+](=O)[O-])c(NC3CCCCC3)n2)cc1`: the EC50 was over 300 µM. Regarding `COc1ccc(NC(=O)c2sc(S)nc2N)cc1` [4-Amino-2-thioxo-2,3-dihydro-thiazole-5-carboxylic acid (4-methoxy-phenyl)-amide], the EC50 is over 300 µM. The figure for `O=C(CCc1ccccc1)Nc1ncc([N+](=O)[O-])s1` is over 300 µM.
